Assay [1] addresses FGFR2 (Homo sapiens (Human), UniProt P21802). The assay is described as follows: FGFR2 Biochemical Caliper Assay. The protocol:
Compounds of the present invention were also tested in a FGFR2 Biochemical Caliper Assay. Compounds were prepared in 10 mM DMSO solution and serially diluted into 11 concentrations by 3-fold dilution. […] 5 uL of ATP solution (100 uM) was added to start the reaction and the plate was incubated for 90 minutes, then 70 uL of stopping buffer (0.5M EDTA) was added to terminate the reaction. Each well was analyzed using EZ reader.

Assay [2] concerns SNU16 cells. The assay is described as follows: SNU16 Cancer Cell Line Proliferation Assay. It is filed as cell-based. The note with it: Homo sapiens; SNU-16 cells. The gist of the method:
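SNU16 cells were seeded, held 24 h at 37 degrees, then dosed with an 11-point 3-fold dilution series prepared from a 10 mM DMSO stock. After 96 h incubation, viability was read by CellTiter Glo luminescence.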

FGFR2, sequence (P21802 22-821): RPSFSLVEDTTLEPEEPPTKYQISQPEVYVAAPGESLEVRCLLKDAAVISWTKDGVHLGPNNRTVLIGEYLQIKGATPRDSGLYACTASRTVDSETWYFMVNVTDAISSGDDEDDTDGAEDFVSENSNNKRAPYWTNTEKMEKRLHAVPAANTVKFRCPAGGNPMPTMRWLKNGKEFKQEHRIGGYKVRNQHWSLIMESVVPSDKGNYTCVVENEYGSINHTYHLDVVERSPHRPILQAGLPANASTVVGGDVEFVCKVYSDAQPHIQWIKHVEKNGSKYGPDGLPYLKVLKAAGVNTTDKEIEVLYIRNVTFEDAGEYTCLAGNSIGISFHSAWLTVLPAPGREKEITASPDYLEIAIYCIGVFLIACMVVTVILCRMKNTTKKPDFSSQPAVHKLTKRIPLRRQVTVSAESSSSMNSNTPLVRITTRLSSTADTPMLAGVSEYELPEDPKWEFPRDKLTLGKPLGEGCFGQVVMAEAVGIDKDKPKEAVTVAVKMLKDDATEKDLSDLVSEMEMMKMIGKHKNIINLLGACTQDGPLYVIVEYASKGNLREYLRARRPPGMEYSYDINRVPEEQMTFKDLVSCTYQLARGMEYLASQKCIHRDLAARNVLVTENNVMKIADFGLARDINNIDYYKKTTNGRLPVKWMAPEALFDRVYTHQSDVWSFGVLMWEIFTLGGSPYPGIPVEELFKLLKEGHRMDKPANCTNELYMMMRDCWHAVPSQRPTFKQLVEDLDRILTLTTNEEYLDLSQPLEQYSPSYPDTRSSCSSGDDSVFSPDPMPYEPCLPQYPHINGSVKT

For the molecule `C=CC(=O)N1CCC(c2c(-c3ccc(Oc4ncccn4)c(OC)c3)c3c(N)ncnc3n2C)C1` (centres unmarked) [Example 687], the IC50 in assay [1] and in assay [2] was 1000 to 100000 nM each time.

Take `C=C(C)C(=O)N1CC=C(c2c(-c3ccc(Oc4ncccn4)cc3)c3c(N)ncnc3n2C)C1` [Example 688]: the half-inhibitory concentration (IC50) in assay [1] and in assay [2] was 1000 to 100000 nM in each case.

For `C=CC(=O)N1CCC(c2c(-c3ccc(Oc4ccccn4)cc3)c3c(N)ncnc3n2C)C1` (centres unmarked) [Example 689], the results for the IC50 in assay [1] and in assay [2] were less than 100 nM and not above 100 nM, respectively.

Take `C=CC(=O)N1CC=C(c2c(-c3ccc(Oc4cccc(CC)n4)c(OC)c3)c3c(N)ncnc3n2C)CC1` [Example 690]: the concentration for half-maximal inhibition (IC50) (usually the concentration needed to halve the response being measured) was less than 100 nM in assay [1] and not above 100 nM in assay [2].

Turning to `C=C(C)C(=O)N1CCC(c2c(-c3ccc(Oc4cccc(C)n4)cc3)c3c(N)ncnc3n2C)C1` (centres unmarked) [Example 691], the IC50 in assay [1] was in the range of 250 to 1000 nM; in assay [2], 1000 to 100000 nM.

In the case of `C/C=C/C(=O)N1CCC(c2c(-c3ccc(Oc4cccc(C)n4)cc3)c3c(N)ncnc3n2C)C1` (centres unmarked) [Example 692], the IC50 in assay [1] and in assay [2] was 1000 to 100000 nM in each case.

On to `C=C(C)C(=O)N1CCC(c2c(-c3ccc(Oc4cccc(C)n4)cc3)c3c(N)ncnc3n2C)CC1` [Example 693], for which the values for the IC50 in assay [1] and in assay [2] were 250 to 1000 nM and 1000 to 100000 nM, respectively.

For the molecule `C/C=C/C(=O)N1CCC(c2c(-c3ccc(Oc4cccc(C)n4)cc3)c3c(N)ncnc3n2C)CC1` [Example 694], the half-maximal inhibitory concentration (IC50) in assay [1] and in assay [2] was 250 to 1000 nM throughout.

On to `CC#CC(=O)N1CCC(c2c(-c3ccc(Oc4cccc(C)n4)cc3)c3c(N)ncnc3n2C)CC1` [Example 695], for which the IC50 is 100 to 250 nM in assay [1] and not above 100 nM in assay [2].

Turning to `C=CC(=O)N1CCC(c2c(-c3ccc(Oc4ncccn4)cc3)c3c(N)ncnc3n2C)CC1` [Example 696], the results for the concentration for half-maximal inhibition (IC50) in assay [1] and in assay [2] were 250 to 1000 nM and 100 to 250 nM, respectively.

On to `CC#CC(=O)N1CCC(c2c(-c3ccc(Oc4cccc(C)n4)cc3)c3c(N)ncnc3n2C)C1` (centres unmarked) [Example 699], for which the half-maximal inhibitory concentration (IC50) in assay [1] was 100 to 250 nM; in assay [2] it was not above 100 nM.

With `C=CC(=O)N1CCC(c2c(-c3ccccc3)c3c(N)ncnc3n2C)C1` (centres unmarked) [Example 700], the half-maximal inhibitory concentration (IC50) lay in the range of 1000 to 100000 nM in assay [1] and 250 to 1000 nM in assay [2].

With `C=CC(=O)N1CCC(c2c(-c3ccc(Oc4ccccn4)cc3)c3c(N)ncnc3n2C)CC1` [Example 701], the results for the IC50 in assay [1] and in assay [2] were less than 100 nM and not above 100 nM, respectively.

Regarding `C=CC(=O)N1CCC(c2c(-c3ccc(OC)cc3)c3c(N)ncnc3n2C)C1` (centres unmarked) [Example 702], the half-inhibitory concentration (IC50) lay within 250 to 1000 nM in assay [1] and 100 to 250 nM in assay [2].

For the molecule `C=C(C)C(=O)Nc1ccc(-c2[nH]c3ncnc(N)c3c2-c2ccc(Oc3cccc(C)n3)cc2)cc1` [Example 703], the IC50 in assay [1] was less than 100 nM; in assay [2], not above 100 nM.

On to `C=CC(=O)N1CCC(c2c(-c3ccc(Oc4ncccn4)cc3)c3c(N)ncnc3n2C2CCOCC2)C1` (centres unmarked) [Example 704], for which the IC50 in assay [1] fell in the range of 250 to 1000 nM; in assay [2] it was 100 to 250 nM.

Take `C=CC(=O)N1CCC(c2c(-c3ccc(Oc4ncccn4)cc3)c3c(N)ncnc3n2CC)C1` (centres unmarked) [Example 705]: the figures for the half-inhibitory concentration (IC50) in assay [1] and in assay [2] were 100 to 250 nM and not above 100 nM, respectively.

For the molecule `C=CC(=O)N1CCC(c2c(-c3ccc(Oc4ccc(Cl)cn4)cc3)c3c(N)ncnc3n2C)C1` (centres unmarked) [Example 706], the IC50 is less than 100 nM in assay [1] and not above 100 nM in assay [2].

As for `C=CC(=O)N1CCC(c2c(-c3ccc(Oc4ncccn4)cc3)c3c(N)ncnc3n2CCN(C)C)C1` (centres unmarked) [Example 707], the half-inhibitory concentration (IC50) in assay [1] and in assay [2] was 1000 to 100000 nM each time.

Take `C=CC(=O)N1CCC(c2[nH]c3ncnc(N)c3c2-c2ccc(Oc3ncccn3)cc2)C1` (centres unmarked) [Example 709]: the values for the IC50 in assay [1] and in assay [2] were less than 100 nM and not above 100 nM, respectively.

For the molecule `C=CC(=O)N1CC[C@@H](c2[nH]c3ncnc(N)c3c2-c2ccc(Oc3ncccn3)cc2)C1` [Example 713], the values for the IC50 in assay [1] and in assay [2] were less than 100 nM and not above 100 nM, respectively.

For the molecule `C=CC(=O)N1CCC(c2c(-c3ccc(Oc4ncccn4)cc3)c3c(N)ncnc3n2C2CC(O)C2)C1` (centres unmarked) [Example 714], the IC50 is less than 100 nM in assay [1] and not above 100 nM in assay [2].

Consider `C=CC(=O)N1CCC(c2c(-c3cnn(CCN(C)C)c3)c3c(N)ncnc3n2C)C1` (centres unmarked) [Example 715], for which the IC50 in assay [1] and in assay [2] was 1000 to 100000 nM in each case.

Regarding `C=CC(=O)N1CCC(c2c(-c3ccc(OC4CCCC4)cc3)c3c(N)ncnc3n2C)C1` (centres unmarked) [Example 716], the half-maximal inhibitory concentration (IC50) in assay [1] is less than 100 nM; in assay [2] it was not above 100 nM.

On to `C=CC(=O)N1CCC(c2c(-c3ccc(OCCOC)cc3)c3c(N)ncnc3n2C)C1` (centres unmarked) [Example 717], for which the concentration for half-maximal inhibition (IC50) was 1000 to 100000 nM in assay [1] and 250 to 1000 nM in assay [2].

Turning to `C=CC(=O)N1CCC(c2c(-c3ccc(C(=O)N4CCC(F)(F)C4)cc3)c3c(N)ncnc3n2C)C1` (centres unmarked) [Example 718], the IC50 in assay [1] and in assay [2] was 250 to 1000 nM in each case.

For the molecule `C=CC(=O)N1CCC(c2c(-c3ccc(N4CCCC4)cc3)c3c(N)ncnc3n2C)C1` (centres unmarked) [Example 719], the results for the IC50 in assay [1] and in assay [2] were less than 100 nM and not above 100 nM, respectively.

With `C=CC(=O)N1CCC(c2c(-c3ccc(N(C)C(C)=O)cc3)c3c(N)ncnc3n2C)C1` (centres unmarked) [Example 720], the IC50 in assay [1] and in assay [2] was 1000 to 100000 nM throughout.

On to `C=CC(=O)N1CCC(c2c(-c3ccc(COC)cc3)c3c(N)ncnc3n2C)C1` (centres unmarked) [Example 721], for which the IC50 in assay [1] and in assay [2] was 250 to 1000 nM each time.

On to `C=CC(=O)N1CCC(c2c(-c3ccc(C(=O)N4CCOCC4)cc3)c3c(N)ncnc3n2C)C1` (centres unmarked) [Example 722], for which the IC50 in assay [1] and in assay [2] was 1000 to 100000 nM each time.

Take `C=CC(=O)N1CCC(c2c(-c3cnn(CC(F)(F)F)c3)c3c(N)ncnc3n2C)C1` (centres unmarked) [Example 723]: the IC50 in assay [1] and in assay [2] was 1000 to 100000 nM in each case.

As for `C=CC(=O)N1CCC(c2c(-c3ccc(CN4CC[C@@H](O)C4)cc3)c3c(N)ncnc3n2C)C1` (some centres unmarked) [Example 724], the half-inhibitory concentration (IC50) in assay [1] and in assay [2] was 1000 to 100000 nM throughout.

As for `C=CC(=O)N1CCC(c2c(-c3ccc(C(=O)Nc4ccccn4)cc3)c3c(N)ncnc3n2C)C1` (centres unmarked) [Example 725], the IC50 in assay [1] is less than 100 nM; in assay [2] it was 100 to 250 nM.

Take `C=CC(=O)N1CCC(c2c(-c3cnn(C4CCCC4)c3)c3c(N)ncnc3n2C)C1` (centres unmarked) [Example 726]: the concentration for half-maximal inhibition (IC50) in assay [1] and in assay [2] was 1000 to 100000 nM each time.

Consider `C=CC(=O)N1CCC(c2c(-c3ccc(C(=O)N4CCC4)c(F)c3)c3c(N)ncnc3n2C)C1` (centres unmarked) [Example 727], for which the IC50 in assay [1] and in assay [2] was 1000 to 100000 nM throughout.

Take `C=CC(=O)N1CCC(c2c(-c3ccc(Oc4ncccn4)cc3)c3c(N)ncnc3n2CCN2CCOCC2)C1` (centres unmarked) [Example 728]: the IC50 in assay [1] and in assay [2] was 1000 to 100000 nM throughout.

Regarding `C=CC(=O)N1CCC(c2c(-c3ccc(COc4ccccc4)cc3)c3c(N)ncnc3n2C)C1` (centres unmarked) [Example 729], the concentration for half-maximal inhibition (IC50) in assay [1] and in assay [2] was 100 to 250 nM each time.

Turning to `C=CC(=O)N1CC[C@H](c2[nH]c3ncnc(N)c3c2-c2ccc(Oc3ncccn3)cc2)C1` [Example 730], the IC50 lay within 250 to 1000 nM in assay [1] and 1000 to 100000 nM in assay [2].

Take `C=CC(=O)N1CCC(c2c(-c3ccc(C(=O)N4CCSC4)cc3)c3c(N)ncnc3n2C)C1` (centres unmarked) [Example 731]: the half-inhibitory concentration (IC50) in assay [1] and in assay [2] was 250 to 1000 nM in each case.

`C=CC(=O)N1CCC(c2c(-c3cnn(CC4CCNCC4)c3)c3c(N)ncnc3n2C)C1` (centres unmarked) [Example 732]: the figures for the IC50 in assay [1] and in assay [2] were 100 to 250 nM and 1000 to 100000 nM, respectively.

In the case of `C=CC(=O)N1CCC(c2c(-c3ccc(OCC(F)(F)F)nc3)c3c(N)ncnc3n2C)C1` (centres unmarked) [Example 733], the IC50 in assay [1] and in assay [2] was 250 to 1000 nM in each case.

On to `C=CC(=O)N1CCC(c2c(-c3ccc(OCC4CC4)cc3)c3c(N)ncnc3n2C)C1` (centres unmarked) [Example 734], for which the IC50 in assay [1] was 100 to 250 nM; in assay [2] it was not above 100 nM.

As for `C=CC(=O)N1CCC(c2c(-c3ccc(C(=O)N4CCCC4)cc3)c3c(N)ncnc3n2C)C1` (centres unmarked) [Example 735], the IC50 in assay [1] and in assay [2] was 250 to 1000 nM in each case.

In the case of `C=CC(=O)N1CCC(c2c(-c3cnn(C4CCOC4)c3)c3c(N)ncnc3n2C)C1` (centres unmarked) [Example 736], the IC50 in assay [1] and in assay [2] was 1000 to 100000 nM each time.

For `C=CC(=O)N1CCC(c2c(-c3cnn(C(C)C)c3)c3c(N)ncnc3n2C)C1` (centres unmarked) [Example 737], the half-maximal inhibitory concentration (IC50) in assay [1] and in assay [2] was 1000 to 100000 nM each time.

Consider `C=CC(=O)N1CCC(c2c(-c3ccc(Oc4ncccn4)cc3)c3c(N)ncnc3n2CCN2CCN(C)CC2)C1` (centres unmarked) [Example 738], for which the half-inhibitory concentration (IC50) in assay [1] and in assay [2] was 1000 to 100000 nM throughout.

Consider `C=CC(=O)N1CCC(c2c(-c3ccc(Oc4ncc(Cl)cn4)cc3)c3c(N)ncnc3n2C)C1` (centres unmarked) [Example 739], for which the half-inhibitory concentration (IC50) in assay [1] is 100 to 250 nM; in assay [2], not above 100 nM.

Regarding `C=CC(=O)N1CC[C@@H](c2c(-c3ccc(Oc4ncccn4)cc3)c3c(N)ncnc3n2CCN2CCOCC2)C1` [Example 740], the IC50 in assay [1] and in assay [2] was 1000 to 100000 nM in each case.

`C=CC(=O)N1CC[C@H](c2c(-c3ccc(Oc4ncccn4)cc3)c3c(N)ncnc3n2CCN2CCOCC2)C1` [Example 741]: the concentration for half-maximal inhibition (IC50) in assay [1] and in assay [2] was 1000 to 100000 nM each time.

`C=CC(=O)N1CCC(c2c(-c3cnn(C4CCNCC4)c3)c3c(N)ncnc3n2C)C1` (centres unmarked) [Example 742]: the half-maximal inhibitory concentration (IC50) in assay [1] and in assay [2] was 1000 to 100000 nM each time.

`C=CC(=O)N1CCC(c2c(-c3cnn(C4CCN(C)CC4)c3)c3c(N)ncnc3n2C)C1` (centres unmarked) [Example 743]: the IC50 in assay [1] was 250 to 1000 nM; in assay [2] it was 1000 to 100000 nM.

With `C=CC(=O)N1CCC(c2[nH]c3ncnc(N)c3c2-c2ccc(Oc3cccc(C)n3)cc2)C1` (centres unmarked) [Example 744], the results for the 50% inhibitory concentration (IC50) in assay [1] and in assay [2] were less than 100 nM and not above 100 nM, respectively.

(Values after patent publication US11780845B2 (Relay Therapeutics, Inc., priority 2019, dated 2023).)
